Results from the Kinase Knowledgebase extract (Sharma et al. 2016).

The molecules below were run against EGFR (human) (UniProt P00533).
Sequence of EGFR (human) (P00533 whole entry, looked up): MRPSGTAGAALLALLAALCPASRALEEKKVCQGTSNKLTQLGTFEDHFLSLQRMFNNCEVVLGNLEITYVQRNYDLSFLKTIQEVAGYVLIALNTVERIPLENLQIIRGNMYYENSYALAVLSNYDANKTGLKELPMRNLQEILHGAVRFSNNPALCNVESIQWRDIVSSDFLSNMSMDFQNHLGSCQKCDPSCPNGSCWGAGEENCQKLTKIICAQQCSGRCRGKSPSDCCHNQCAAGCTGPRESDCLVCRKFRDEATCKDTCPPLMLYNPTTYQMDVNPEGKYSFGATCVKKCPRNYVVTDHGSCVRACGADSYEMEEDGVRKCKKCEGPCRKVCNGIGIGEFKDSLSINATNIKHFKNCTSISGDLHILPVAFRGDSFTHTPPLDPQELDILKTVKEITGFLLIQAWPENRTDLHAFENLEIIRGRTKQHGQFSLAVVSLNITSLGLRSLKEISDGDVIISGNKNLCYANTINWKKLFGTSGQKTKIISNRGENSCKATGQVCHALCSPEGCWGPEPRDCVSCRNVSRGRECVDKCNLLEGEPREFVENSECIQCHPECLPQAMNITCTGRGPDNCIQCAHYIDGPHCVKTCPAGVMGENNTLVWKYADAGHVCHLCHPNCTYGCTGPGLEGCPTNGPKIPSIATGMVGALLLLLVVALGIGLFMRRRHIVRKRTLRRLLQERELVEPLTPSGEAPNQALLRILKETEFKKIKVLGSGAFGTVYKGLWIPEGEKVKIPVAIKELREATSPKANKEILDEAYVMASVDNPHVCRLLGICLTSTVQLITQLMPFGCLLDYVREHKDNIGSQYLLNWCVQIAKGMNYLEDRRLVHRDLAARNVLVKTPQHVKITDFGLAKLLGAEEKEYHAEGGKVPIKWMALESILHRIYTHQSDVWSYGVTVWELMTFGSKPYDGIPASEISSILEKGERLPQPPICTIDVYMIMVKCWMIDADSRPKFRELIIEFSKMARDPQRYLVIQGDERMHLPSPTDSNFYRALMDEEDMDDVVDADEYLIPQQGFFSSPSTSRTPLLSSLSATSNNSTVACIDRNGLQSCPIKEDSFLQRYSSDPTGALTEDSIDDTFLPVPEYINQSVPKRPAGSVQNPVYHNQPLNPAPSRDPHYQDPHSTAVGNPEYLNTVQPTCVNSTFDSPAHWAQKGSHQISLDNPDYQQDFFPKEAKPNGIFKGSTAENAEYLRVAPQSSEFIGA

SMILES	IC50 [µM]
N#C/C(=C\c1cc(O)c(O)c(Cl)c1)C(=O)Nc1ccccc1	1.2
N#C/C(=C\c1cc(O)c(O)c(Br)c1Br)C(=O)Nc1cccc(Cl)c1	0.28
N#C/C(=C\c1cc(O)c(O)c(C(F)(F)F)c1)C(=O)Nc1cccc(Cl)c1	2.3
Cc1cccc(NC(=O)/C(C#N)=C/c2ccc(O)c(O)c2)c1	2.1
COc1cc(/C=C(\C#N)C(=O)Nc2cccc(Cl)c2)cc(Br)c1O	1.4
Cc1cc(/C=C(\C#N)C(=O)Nc2cccc(Cl)c2)cc(O)c1O	1.3
Cc1cc(/C=C(\C#N)C(=O)Nc2cccc(Cl)c2)cc(C)c1O	0.9
N#C/C(=C\c1cc(Br)c(O)c(Br)c1)C(=O)Nc1cccc(Cl)c1	1.1
N#C/C(=C\c1cc(O)c(O)c(Br)c1)C(=O)Nc1cccc(Cl)c1	0.49
N#C/C(=C\c1cc(O)c(O)c(F)c1)C(=O)Nc1cccc(Cl)c1	0.6
N#C/C(C(=O)Nc1ccccc1)=C(\O)c1ccc(O)c(O)c1	0.96
COc1cc(/C=C(\C#N)C(=O)Nc2ccccc2)cc(Br)c1O	1.8
COc1cc(/C=C(\C#N)C(=O)Nc2cccc(Cl)c2)ccc1O	2.1
CCOc1cc(/C=C(\C#N)C(N)=O)cc(CSc2ccccc2)c1O	2.6
N#C/C(=C\c1ccc(O)c(O)c1)C(=O)Nc1cccc(Cl)c1	1.4
COc1cc(/C=C(\C#N)C(=O)Nc2cccc(Cl)c2)cc(F)c1O	1.6
COc1cc(/C=C(\C#N)C(=O)Nc2ccccc2)cc(Cl)c1O	1.6
COc1cc(/C=C(\C#N)C(=O)Nc2cccc(Cl)c2)cc(Cl)c1O	0.68
N#C/C(=C\c1cc(O)c(O)c(C#N)c1)C(=O)Nc1cccc(Cl)c1	1
N#C/C(=C\c1cc(O)c(O)c(Cl)c1)C(=O)Nc1cccc(Cl)c1	0.68
COc1cc(/C=C(\C#N)C(=O)Nc2cccc(Cl)c2)cc(S(C)(=O)=O)c1O	1.4
COc1cc(/C=C(\C#N)C(=O)Nc2cccc(Cl)c2)cc([N+](=O)[O-])c1O	1.8
N#C/C(=C\c1cc(O)c(O)cc1[N+](=O)[O-])C(=O)Nc1cccc(Cl)c1	0.28
COc1cc(/C=C(\C#N)C(=O)Nc2cccc(Cl)c2)cc(C)c1O	0.42
